Reference: patent US10561635B2, “Cromolyn compositions for treatment of pulmonary fibrosis” (Respivant Sciences, GmbH, priority 2016, dated 2020)
Where two headings read alike, the source gives them in different places.

Tests used:
[1] = PK-01: pharmacokinetics and relative bioavailability of single doses in healthy subjects; format: in vivo, human; conditions: for AUC(0-inf): human, plasma, inhaled, 40 mg, 40 mg single dose
[2] = in vivo, cited from earlier work
[3] = Pharmacokinetics of cromolyn sodium in plasma and lung of male BALB/c mice after a single intraperitoneal injection; format: in vivo; conditions: single IP injection, 10 mg/kg and 100 mg/kg
Description: BALB/c male mice, weighing 22±2 g, were provided by BioLasco Taiwan. All animals were maintained in a well-controlled temperature (20-24° C.) and humidity (30%-70%) environment with 12 hours light/dark cycles. The mice were given free access to a standard lab diet [MFG (Oriental Yeast Co., Ltd., Japan)] and autoclaved tap water.
The solution was administered to the mice by IP injection at concentrations of 10 mg/kg and 100 mg/kg. The dosing volume for both dose strengths was 5 mL/kg.
The mice were sedated under general inhalant anesthesia (3% isoflurane) for blood collection by cardiac puncture. […]
The plasma samples were processed using acetonitrile (ACN) precipitation and analyzed by LC-MS/MS. […] The processed plasma samples were stored at −70° C. until receiving LC-MS/MS analysis, at which time peak areas were recorded, and the concentrations of the test substance in the unknown plasma samples were determined using the respective calibration curve. The reportable linear range of the assay was determined, along with the lower limit of quantitation (LLQ).
Each lung was homogenized in 1.5 mL cold phosphate-buffered saline (PBS) at pH 7.4 for 10 seconds on ice. The lung homogenate was centrifuged at 5,400×g for 15 minutes at 4° C., and the supernatant was subsequently processed using ACN precipitation and analyzed by LC-MS/MS. […]

- AUC(0-inf) ([1]; eFlow 30 L): 338 ng·h/mL
- AUC(0-inf) ([1]; eFlow 40 L): 212 ng·h/mL
- lung deposition with the 30 L device compared with the 40 L device, indicated by AUC ([1]; same dose (40 mg)): surprisingly higher
- exposure of cromolyn sodium in the plasma and lungs [3]: Significant exposure
Structure (SMILES): O=C([O-])c1cc(=O)c2c(OCC(O)COc3cccc4oc(C(=O)O)cc(=O)c34)cccc2o1.[Na+] [cromolyn sodium, disodium 5,5′-(2-hydroxypropane-1,3-diyl)bis(oxy)bis(4-oxo-4H-chromene-2-carboxylate)]
- oral bioavailability ([2]; listed as cromolyn): about 1%
- oral bioavailability [2]: ~1%
